Test results as given in patent US20080318942A1, “Fredericamycin Derivatives” (BIOAGENCY AG, priority 2005, published 2008).

Tested on: human breast cancer cell line MCF7
Assay: Efficacy of the compounds on the survival of tumor cells (cytotoxic effect, cell-titer Glo luminescence)
Assay type: cell-based
Conditions: 48 hours incubation with compound (2.4 nM to 10,000 nM), inhibition of cell survival
Procedure: The effect of the compounds on the survival of the human breast cancer cell line MCF7 was measured.
The cell line was analyzed at 37° C. [98.6° F.], 95% humidity and 5% CO2 in RPMI Medium (Cambrex).
The cells are inoculated in a 96-well microtiter plate (Costar) at an initial density of 2400 cells per well and cultivated for 24 hours.
The compounds are dissolved in DMSO, diluted with cell medium and added to the wells.
The cells are incubated for another 48 hours at a concentration of the compounds between 2.4 nM and 10,000 nM at a volume of 50 μl.
50 μl of cell-titer Glo (Promega) are added to each well and the microtiter plate is incubated for 2 minutes at room temperature on a shaker and then left standing in the dark for 10 minutes.
The luminescence is measured with a microplate reader and is proportional to the number of surviving cells. The percentage of inhibition of the cell survival is calculated in comparison to (i) without cells and with compound (100% inhibition) and (ii) with cells and without compound (no inhibition).
The concentration of the half-maximum inhibition (IC50) is determined with GraphPad Prism (GraphPad Software), whereby the controls are 0% and 100%.

| Compound | IC50 [nM] | IC50 (Homo sapiens) [nM] |
| --- | --- | --- |
| C/C=C/C=C/c1cc2c(Br)c3c(c(O)c2c(=O)[nH]1)[C@]1(CC3)C(=O)c2c(O)c3c(c(O)c2C1=O)C(=O)C(NC)=C(Br)C3=O [Compound 7, (8S)-4′,9,9′-trihydroxy-5,7′-dibromo-6′-methylamino-3-[(1E,3E)-penta-1,3-dienyl]-6,7-dihydrospiro[cyclopenta[g]-isoquinoline-8,2′-cyclopenta[b]-naphthalene]-1,1′-3′,5′,8′(2H)-pentone] | 190 | – |
| C/C=C/C=C/c1cc2c(CN(C)C)c3c(c(O)c2c(=O)[nH]1)[C@@]1(CC3)C(=O)c2c(O)c3c(c(O)c2C1=O)C(=O)C(NC)=CC3=O [Compound 7a, (8S)-4′,9,9′-trihydroxy-5-dimethylaminomethyl-6′-methylamine-3-[(1E,3E)-penta-1,3-dienyl]-6,7-dihydrospiro[cyclopenta[g]-isoquinoline-8,2′-cyclopenta[b]-naphthalene]-1,1′-3′,5′,8′(2H)-pentone] | 660 | – |
| C/C=C/C=C/c1cc2c(Br)c3c(c(O)c2c(=O)[nH]1)[C@]1(CC3)C(=O)c2c(O)c3c(c(O)c2C1=O)C(=O)C(N1CCOCC1)=C(Br)C3=O [Compound 9, (BS)-4′,9,9′-trihydroxy-5,7′-dibromo-6′-morpholino-3-[(1E,3E)-penta-1,3-dienyl]-6,7-dihydrospiro[cyclopenta[g]-isoquinoline-8,2′-cyclopenta[b]-naphthalene]-1,1′-3′,5′,8′(2H)-pentone] | 670 | – |
| CON=Cc1cc2c(Br)c3c(c(O)c2c(=O)[nH]1)[C@]1(CC3)C(=O)c2c(O)c3c(c(O)c2C1=O)C(=O)C(N(C)C)=C(Br)C3=O [Compound 13, (8S)-4′,9,9′-trihydroxy-5,7′-dibromo-6′-dimethylamino-1,1′,3′,5′,8′-pentaoxo-1,1′,2,3′,5′,6,7,8′-octahydrospiro-[cyclopenta[g]-isoquinoline-8,2′-cyclopenta[b]naphthalene]-3-carbaldehyde-O-methyloxime] | – | 300 |
| (8S)-4,9,9′-trihydroxy-5,7′-dibromo-6′-cyclopropylamino-1,1′,3′,5′,8′-pentaoxo-1,1′,2,3′,5′,6,7,8′-octahydrospiro-[cyclopenta[g]-isoquinoline-8,2′-cyclopenta[b]naphthalene]-3-carbaldehyde-O-methyloxime [Compound 12] | 380 | – |
